Measured values reported in paper PMC12073402, “A Selective MAP3K1 Inhibitor Facilitates Discovery of NPM1 as a Member of the Network” (Molecules, 2025).

How the values were obtained:
Assay in all cases: KiNativ kinome profiling in PANC-1 lysate
Type in all cases: binding
[1] = biological target: T1, AAK1 (Homo sapiens, UniProt Q2M2I8); settings: Lys2
T1 construct: endogenous in cells; host or cells: PANC-1 cell lysate
In short: (§1)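 PANC-1 lysates were incubated with 5 μM inhibitor or DMSO, then labeled with a desthiobiotin-ATP acyl-phosphate probe that biotinylates conserved kinase lysines. Tryptic peptides were streptavidin-enriched and quantified by LC-MS/MS, reported as % change in MS signal from duplicate treated and duplicate control samples.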

[2] = test system: AurA, AurB, AurC; settings: 5 µM; ATP Loop; GKFGNVYLAR
In short: as §1

[3] = biological target: T2, CDK10 (Homo sapiens, UniProt Q15131); settings: Lys2
T2 construct: endogenous in cells; host or cells: PANC-1 cell lysate
T2 sequence (Q15131 whole entry): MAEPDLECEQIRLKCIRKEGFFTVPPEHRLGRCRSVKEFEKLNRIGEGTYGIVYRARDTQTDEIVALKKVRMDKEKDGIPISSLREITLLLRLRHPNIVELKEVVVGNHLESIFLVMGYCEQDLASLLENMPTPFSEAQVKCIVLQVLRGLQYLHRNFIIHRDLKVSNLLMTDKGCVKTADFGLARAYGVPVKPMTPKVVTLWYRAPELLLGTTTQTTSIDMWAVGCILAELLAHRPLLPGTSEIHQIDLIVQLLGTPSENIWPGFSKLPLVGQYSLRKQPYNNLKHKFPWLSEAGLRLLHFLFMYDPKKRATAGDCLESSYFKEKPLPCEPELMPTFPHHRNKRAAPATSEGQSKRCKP
In short: as §1

[4] = biological target: T3, CK2a1 (Homo sapiens, UniProt P68400); settings: Protein Kinase Domain
T3 construct: endogenous in cells; host or cells: PANC-1 cell lysate
In short: as §1

[5] = test system: DRAK1, DRAK2; settings: 5 µM; ATP Loop; GKFAVVR
In short: as §1

[6] = biological target: T4, GCN2 domain2 (Homo sapiens, UniProt Q9P2K8)
T4 construct: we opted to conduct a kinome screen (KiNativ) in PANC-1 cell lysates; endogenous in cells; host or cells: PANC-1 cell lysate
T4 sequence (Q9P2K8 whole entry, the tested form may be a part): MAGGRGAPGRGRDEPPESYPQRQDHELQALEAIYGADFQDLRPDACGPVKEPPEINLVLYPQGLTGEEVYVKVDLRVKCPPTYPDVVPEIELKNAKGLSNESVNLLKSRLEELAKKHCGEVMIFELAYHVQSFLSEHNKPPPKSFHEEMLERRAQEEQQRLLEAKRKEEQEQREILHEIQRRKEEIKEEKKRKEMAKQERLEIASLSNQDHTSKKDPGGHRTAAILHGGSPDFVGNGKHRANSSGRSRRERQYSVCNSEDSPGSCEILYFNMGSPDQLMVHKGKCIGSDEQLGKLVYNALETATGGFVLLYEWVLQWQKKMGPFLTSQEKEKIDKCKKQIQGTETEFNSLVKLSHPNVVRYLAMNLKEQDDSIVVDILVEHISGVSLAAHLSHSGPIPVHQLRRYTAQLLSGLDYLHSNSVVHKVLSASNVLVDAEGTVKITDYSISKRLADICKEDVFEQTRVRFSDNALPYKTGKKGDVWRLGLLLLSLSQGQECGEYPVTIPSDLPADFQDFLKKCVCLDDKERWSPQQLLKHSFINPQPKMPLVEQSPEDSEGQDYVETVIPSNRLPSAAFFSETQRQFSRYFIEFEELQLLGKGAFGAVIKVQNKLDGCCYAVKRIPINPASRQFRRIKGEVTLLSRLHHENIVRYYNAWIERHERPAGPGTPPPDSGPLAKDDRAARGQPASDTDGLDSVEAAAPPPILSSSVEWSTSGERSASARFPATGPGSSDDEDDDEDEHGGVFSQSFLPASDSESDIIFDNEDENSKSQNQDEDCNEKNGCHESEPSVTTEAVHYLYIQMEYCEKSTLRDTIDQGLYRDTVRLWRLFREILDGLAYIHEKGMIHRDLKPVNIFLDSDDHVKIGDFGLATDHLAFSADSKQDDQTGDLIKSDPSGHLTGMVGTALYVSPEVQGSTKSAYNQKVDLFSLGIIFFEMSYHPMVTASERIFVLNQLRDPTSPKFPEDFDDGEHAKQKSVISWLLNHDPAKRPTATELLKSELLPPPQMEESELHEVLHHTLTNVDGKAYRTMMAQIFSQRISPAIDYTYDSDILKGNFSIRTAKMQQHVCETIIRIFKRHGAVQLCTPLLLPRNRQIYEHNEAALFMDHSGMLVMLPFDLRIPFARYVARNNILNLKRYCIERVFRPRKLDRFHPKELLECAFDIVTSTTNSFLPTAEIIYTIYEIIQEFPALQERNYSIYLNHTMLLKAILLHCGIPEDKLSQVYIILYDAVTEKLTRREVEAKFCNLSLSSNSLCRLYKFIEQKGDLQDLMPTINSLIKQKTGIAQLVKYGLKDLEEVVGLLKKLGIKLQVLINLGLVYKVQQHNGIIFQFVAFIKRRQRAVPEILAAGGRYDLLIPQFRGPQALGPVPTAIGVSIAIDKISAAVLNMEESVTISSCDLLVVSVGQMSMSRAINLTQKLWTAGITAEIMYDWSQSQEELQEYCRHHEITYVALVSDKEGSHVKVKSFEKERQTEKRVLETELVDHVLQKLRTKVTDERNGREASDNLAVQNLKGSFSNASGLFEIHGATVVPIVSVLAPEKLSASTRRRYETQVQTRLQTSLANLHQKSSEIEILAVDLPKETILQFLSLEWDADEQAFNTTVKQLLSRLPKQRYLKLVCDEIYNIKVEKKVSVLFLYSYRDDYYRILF
In short: as §1

[7] = biological target: T5, MAP2K3 (Homo sapiens, UniProt P46734)
T5 construct: endogenous in cells; host or cells: PANC-1 cell lysate
T5 sequence (P46734 1-347): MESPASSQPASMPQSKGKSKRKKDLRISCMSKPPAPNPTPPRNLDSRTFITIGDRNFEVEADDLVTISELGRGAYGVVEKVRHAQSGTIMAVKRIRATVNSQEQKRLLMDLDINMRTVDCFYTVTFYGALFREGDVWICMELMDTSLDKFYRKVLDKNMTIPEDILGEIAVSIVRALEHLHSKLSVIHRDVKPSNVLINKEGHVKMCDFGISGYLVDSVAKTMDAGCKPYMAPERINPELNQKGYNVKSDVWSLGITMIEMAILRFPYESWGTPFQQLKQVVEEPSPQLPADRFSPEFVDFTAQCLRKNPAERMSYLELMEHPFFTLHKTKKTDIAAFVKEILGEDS
In short: as §1

[8] = biological target: T6, MAP2K4 (Homo sapiens, UniProt P45985)
T6 construct: endogenous in cells; host or cells: PANC-1 cell lysate
T6 sequence (P45985 whole entry): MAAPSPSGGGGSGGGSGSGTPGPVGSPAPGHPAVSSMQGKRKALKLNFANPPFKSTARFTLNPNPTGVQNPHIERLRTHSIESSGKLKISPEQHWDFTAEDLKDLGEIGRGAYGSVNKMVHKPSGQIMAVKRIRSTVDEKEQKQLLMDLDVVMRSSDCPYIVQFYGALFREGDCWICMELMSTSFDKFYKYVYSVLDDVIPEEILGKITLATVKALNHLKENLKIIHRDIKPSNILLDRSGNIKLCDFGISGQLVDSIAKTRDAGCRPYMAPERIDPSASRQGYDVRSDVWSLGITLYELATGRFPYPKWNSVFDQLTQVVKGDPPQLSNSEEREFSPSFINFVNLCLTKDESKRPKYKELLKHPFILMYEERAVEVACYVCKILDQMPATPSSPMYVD
In short: as §1

[9] = biological target: T7, MAP2K5 (Homo sapiens, UniProt Q13163); settings: Lys2
T7 construct: endogenous in cells; host or cells: PANC-1 cell lysate
In short: as §1

[10] = test system: MSK1 domain1, MSK2 domain1; settings: 5 µM; ATP Loop; VLGTGAYGKVFLVR
In short: as §1

[11] = biological target: T8, MST2 (Homo sapiens, UniProt Q13188); settings: Lys1
T8 construct: endogenous in cells; host or cells: PANC-1
In short: as §1

[12] = test system: MST4, YSK1; settings: 5 µM; Lys2; DIKAANVLLSEQGDVK
In short: as §1

[13] = biological target: T9, NDR1 (Homo sapiens, UniProt Q15208)
T9 construct: endogenous in cells; host or cells: PANC-1
T9 sequence (Q15208 whole entry): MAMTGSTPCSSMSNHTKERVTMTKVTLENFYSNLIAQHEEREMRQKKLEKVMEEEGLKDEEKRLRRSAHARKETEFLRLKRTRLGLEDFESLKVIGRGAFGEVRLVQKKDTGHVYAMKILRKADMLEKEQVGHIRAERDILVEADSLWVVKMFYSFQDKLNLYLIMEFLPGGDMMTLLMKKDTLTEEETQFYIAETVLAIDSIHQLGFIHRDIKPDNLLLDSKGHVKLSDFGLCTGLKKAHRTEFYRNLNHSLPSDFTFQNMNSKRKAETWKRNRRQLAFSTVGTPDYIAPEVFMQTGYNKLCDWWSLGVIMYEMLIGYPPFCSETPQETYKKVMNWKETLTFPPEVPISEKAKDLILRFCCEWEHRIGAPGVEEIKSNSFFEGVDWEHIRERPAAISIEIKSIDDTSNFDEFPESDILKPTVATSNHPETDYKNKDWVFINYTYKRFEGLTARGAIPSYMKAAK
In short: as §1

[14] = biological target: T10, NuaK1 (Homo sapiens, UniProt O60285); settings: Lys1
T10 construct: endogenous in cells; host or cells: PANC-1 cell lysate
In short: as §1

[15] = biological target: T11, PAN3 (Homo sapiens, UniProt Q58A45); settings: ATP
T11 construct: endogenous in cells; host or cells: PANC-1 cell lysate
T11 sequence (Q58A45 whole entry): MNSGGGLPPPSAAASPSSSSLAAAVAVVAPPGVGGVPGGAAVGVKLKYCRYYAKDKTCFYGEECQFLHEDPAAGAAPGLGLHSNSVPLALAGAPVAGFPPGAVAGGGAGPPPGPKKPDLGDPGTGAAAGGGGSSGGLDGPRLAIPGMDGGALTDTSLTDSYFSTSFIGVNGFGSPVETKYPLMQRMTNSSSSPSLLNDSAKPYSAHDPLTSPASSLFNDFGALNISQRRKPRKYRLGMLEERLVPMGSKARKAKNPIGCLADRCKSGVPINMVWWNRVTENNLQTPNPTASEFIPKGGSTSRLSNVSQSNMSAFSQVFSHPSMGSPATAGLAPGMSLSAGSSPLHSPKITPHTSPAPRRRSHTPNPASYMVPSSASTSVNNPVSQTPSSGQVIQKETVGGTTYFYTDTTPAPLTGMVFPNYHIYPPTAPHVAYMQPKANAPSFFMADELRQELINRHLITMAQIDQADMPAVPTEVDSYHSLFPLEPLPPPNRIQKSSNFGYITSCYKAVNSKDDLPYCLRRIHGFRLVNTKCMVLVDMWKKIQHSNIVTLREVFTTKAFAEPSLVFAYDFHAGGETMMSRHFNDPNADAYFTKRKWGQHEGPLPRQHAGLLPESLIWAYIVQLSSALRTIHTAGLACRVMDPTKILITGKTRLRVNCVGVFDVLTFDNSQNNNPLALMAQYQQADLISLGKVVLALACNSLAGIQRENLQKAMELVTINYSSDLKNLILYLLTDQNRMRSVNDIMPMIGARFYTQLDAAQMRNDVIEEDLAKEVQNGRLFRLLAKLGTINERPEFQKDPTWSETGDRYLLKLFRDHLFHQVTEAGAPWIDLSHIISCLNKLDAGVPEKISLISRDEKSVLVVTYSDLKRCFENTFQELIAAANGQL
In short: as §1

[16] = biological target: T12, RSK1 domain1 (Homo sapiens, UniProt Q15418); settings: ATP Loop
T12 construct: endogenous in cells; host or cells: PANC-1 cell lysate
In short: as §1

[17] = biological target: T13, RSK3 domain1 (Homo sapiens, UniProt Q15349); settings: Lys2
T13 construct: endogenous in cells; host or cells: PANC-1 cell lysate
T13 sequence (Q15349 whole entry, the tested form may be a part): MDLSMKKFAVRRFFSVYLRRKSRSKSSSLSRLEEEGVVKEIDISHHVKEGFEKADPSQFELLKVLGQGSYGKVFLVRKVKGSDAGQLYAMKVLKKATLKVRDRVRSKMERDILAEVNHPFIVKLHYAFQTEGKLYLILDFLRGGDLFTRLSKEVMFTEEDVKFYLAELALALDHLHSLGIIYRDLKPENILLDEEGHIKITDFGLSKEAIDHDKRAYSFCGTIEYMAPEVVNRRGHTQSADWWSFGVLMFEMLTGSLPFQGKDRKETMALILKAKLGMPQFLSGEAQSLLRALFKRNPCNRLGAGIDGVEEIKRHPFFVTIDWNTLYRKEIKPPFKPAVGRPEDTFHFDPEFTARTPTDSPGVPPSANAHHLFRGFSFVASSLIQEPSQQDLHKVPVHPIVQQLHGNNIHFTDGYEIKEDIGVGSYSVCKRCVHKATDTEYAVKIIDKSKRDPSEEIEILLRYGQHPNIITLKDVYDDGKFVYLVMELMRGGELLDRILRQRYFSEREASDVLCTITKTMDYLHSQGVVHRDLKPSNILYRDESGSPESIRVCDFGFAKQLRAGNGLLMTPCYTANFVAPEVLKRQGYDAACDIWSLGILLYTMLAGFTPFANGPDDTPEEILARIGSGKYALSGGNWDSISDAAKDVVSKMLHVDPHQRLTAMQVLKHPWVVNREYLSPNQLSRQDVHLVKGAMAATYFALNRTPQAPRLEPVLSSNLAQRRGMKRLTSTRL
In short: as §1

[18] = biological target: T14, SGK3 (Homo sapiens, UniProt Q96BR1); settings: Lys1
T14 construct: endogenous in cells; host or cells: PANC-1 cell lysate
T14 sequence (Q96BR1 whole entry): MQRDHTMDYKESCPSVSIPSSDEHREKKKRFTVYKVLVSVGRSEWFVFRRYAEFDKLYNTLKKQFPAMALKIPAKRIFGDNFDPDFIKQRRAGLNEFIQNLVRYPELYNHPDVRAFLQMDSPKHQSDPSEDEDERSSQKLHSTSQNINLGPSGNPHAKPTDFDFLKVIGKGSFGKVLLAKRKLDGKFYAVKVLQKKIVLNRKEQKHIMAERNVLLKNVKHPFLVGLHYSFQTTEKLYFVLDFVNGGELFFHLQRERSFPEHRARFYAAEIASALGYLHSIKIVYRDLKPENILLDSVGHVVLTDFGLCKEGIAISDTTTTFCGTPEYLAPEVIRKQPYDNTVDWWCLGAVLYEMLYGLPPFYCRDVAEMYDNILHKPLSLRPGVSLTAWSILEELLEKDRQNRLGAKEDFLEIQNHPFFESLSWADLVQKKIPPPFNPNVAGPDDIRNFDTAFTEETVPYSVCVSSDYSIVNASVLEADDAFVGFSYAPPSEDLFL
In short: as §1

[19] = biological target: T15, TBK1 (Homo sapiens, UniProt Q9UHD2); settings: Lys1
T15 construct: endogenous in cells; host or cells: PANC-1 cell lysate
In short: as §1

[20] = biological target: T16, ULK3 (Homo sapiens, UniProt Q6PHR2); settings: Lys1
T16 construct: endogenous in cells; host or cells: PANC-1 cell lysate
In short: as §1

[21] = biological target: T17, ZC1/HGK (Homo sapiens, UniProt O95819); settings: Lys1
T17 construct: endogenous in cells; host or cells: PANC-1 cell lysate
In short: as §1

[22] = biological target: T18, eEF2K (Homo sapiens, UniProt O00418); settings: ATP
T18 construct: endogenous in cells; host or cells: PANC-1 lysate
In short: as §1

Cn1cc(-c2cnc3ccc(NC(=O)Nc4ccc(F)c(C(F)(F)F)c4)cc3n2)cn1 [51-106, 1-(4-Fluoro-3-(trifluoromethyl)phenyl)-3-(3-(1-methyl-1H-pyrazol-4-yl)quinoxalin-6-yl)urea]
inhibition at 5 µM [1]: 3.5%
% Inhibition [2]: NB (NB = No Binding (≤ 0))
inhibition at 5 µM [3]: 10.3%
inhibition at 5 µM [4]: ≤ 0%
% Inhibition [5]: 4.6%
inhibition at 5 µM ([6]; Lys1, LDGCCYAVKR): 5.3%
inhibition at 5 µM ([6]; Lys2, DLKPVNIFLDSDDHVK): ≤ 0%
inhibition at 5 µM ([7]; ATP Loop, MCDFGISGYLVDSVAKTMDAGCKPYMAPER): ≤ 0%
inhibition at 5 µM ([7]; Lys1, HAQSGTIMAVKR): ≤ 0%
inhibition at 5 µM ([7]; Lys2, DVKPSNVLINK): 18.5%
inhibition at 5 µM ([8]; ATP Loop, LCDFGISGQLVDSIAKTR): 6%
inhibition at 5 µM ([8]; Lys2, DIKPSNILLDR): ≤ 0%
inhibition at 5 µM [9]: 3%
% Inhibition [10]: 0.1%
inhibition at 5 µM [11]: 0.8%
% Inhibition [12]: 12.8%
inhibition at 5 µM ([13]; Lys1, DTGHVYAMKILR): 6%
inhibition at 5 µM ([13]; Lys2, DIKPDNLLLDSK): ≤ 0%
inhibition at 5 µM [14]: ≤ 0%
inhibition at 5 µM ([15]; IQKSSNFGYITSCYK): ≤ 0%
inhibition at 5 µM ([15]; VMDPTKILITGK): 4.4%
inhibition at 5 µM [16]: ≤ 0%
inhibition at 5 µM [17]: ≤ 0%
inhibition at 5 µM [18]: ≤ 0%
inhibition at 5 µM [19]: 5.7%
inhibition at 5 µM [20]: ≤ 0%
inhibition at 5 µM [21]: 3.1%
inhibition at 5 µM [22]: 6.3%
